Assay results as given in patent EP2204099A1, “Methods for producing pure amino acid chelate complexes, and uses thereof” (Viva Pharmaceuticals Inc., priority 2008, dated 2010).

Key:
[1] = system: CTX-induced immunodeficient mice; test: Clearance of charcoal particles (carbon clearance test) in CTX-induced immunodeficient mice; type: in vivo; details: 17 mg/kg per os; CTX 50 mg/kg i.p.; x±sd, n=10
Method: A total of 70 mice were divided into 7 treatment groups: Vehicle; CTX (cyclophosphamide) + Vehicle; CTX+ZnSO4 (17mg mg/kg); CTX+Zinc chelate (Zn:2Asp:2Lys) (57 mg/kg); CTX+Zinc chelate (Zn:2Asp:2Lys) (114 mg/kg); CTX+Zinc chelate (Zn:2Asp:2Lys) (228 mg/kg); and CTX+Zinc chelate (Zn:2Asp:2Lys) (456 mg/kg). The mice were administrated per os at least 16 days before experimentation. CTX was given as an intraperitoneal injection at the dose of 50 mg/kg every day for 4 days after 9 days of drug administration.
Sixty minutes after the last drug administration, mice were injected with 1:3 diluted Indian ink 10 ml/kg. At 1 min (T1) and 11 min (T2), bold 40µl was taken from retroocular venous plexus and resolved in 0.1 % Na2CO3 solution 4 ml. The absorbance (OD) was measured at 600 nm by a 721 spectrophotometer. The clearance rate K and clearance index a were calculated: K = (lgOD1-lgOD2)/T2 -T1 [formula] α = K^(1/3) × W/(liver weight+spleen weight) [formula] (W: weight of mouse)

[2] = system: CTX-induced immunodeficient mice; test: Serum hemolysin test in CTX-induced immunodeficient mice; type: in vivo; details: 17 mg/kg per os; SRBC-immunized; CTX 50 mg/kg i.p.; x±sd, n=10
Method: A total of 70 mice were divided into […] treatment groups: Vehicle; CTX (cyclophosphamide) + Vehicle; CTX+Zinc Sulphate (17mg mg/kg); CTX+Zinc chelate (Zn:[…]:[…]) (57 mg/kg); CTX+Zinc chelate (Zn:[…]:[…]) (114 mg/kg); CTX+Zinc chelate (Zn:[…]:[…]) (228 mg/kg); CTX+Zinc chelate (Zn:[…]:[…]) (456 mg/kg). The mice were administrated per os at least 16 days before experimentation. After 8 days of drug or vehicle administration, all mice were immunized with an intraperitioneal injection of 0.2 ml of 20% SRBC (sheep red blood cell) in saline. CTX was given intraperitoneal injection at the dose of 50 mg/kg every day for 4 days after 9 days of drug administration. Sixty minutes after the last drug administration, blood was collected by retroorbital venous plexus puncture, and then centrifuged (2000 r/min 5 min). Sheep red cell suspension 0.5 ml (5% sheep red cell in saline) was added to 1 ml diluted sera (1:500 dilution with saline), followed by 1 ml diluted guinea pig plasma (10% plasma in saline) in sequence. For negative controls, the durg waqs substituted with saline. The samples and controls were incubated for 10 min at 37°C, and then immersed in an ice-water bath (0°C) to stop the reaction. […] The absorbance for each tube was recorded and the 50% hemolytic dose (HC50) was calculated as follows: Sample HC50 = sample absorbance 50% hemolytic absorbance x dilution factors.

## Zinc Sulphate
[1]
  α (clearance index): 4.2988±1.4347
[2]
  HC50 (serum hemolysin): 141.7±29.5
